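Compound exposure: 48 hours, 5 concentrations, 96-well plates. GI50 is the concentration that inhibits growth by half.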 Calls of active or inactive are those of the source. Cut-off read from the data, not from the text of the source: active = GI50 up to about 1.1 µM and inactive = higher.
How the values were obtained:
Assay in all cases: NCI anticancer screen, dose series, 48 h
DMS-273 = tested on: DMS-273
HL-60 = tested on: HL-60
UO-31 = tested on: UO-31
SK-MEL-28 = tested on: SK-MEL-28
KM12 = tested on: KM12
HT-29 = tested on: HT-29
U-251 = tested on: U-251
RPMI-8226 = tested on: RPMI-8226
Malme-3M = tested on: Malme-3M
M14 = tested on: M14
SN12C = tested on: SN12C
OVCAR-5 = tested on: OVCAR-5
LOX IMVI = tested on: LOX IMVI
SK-MEL-2 = tested on: SK-MEL-2
HOP-92 = tested on: HOP-92
CCRF-CEM = tested on: CCRF-CEM
SF-295 = tested on: SF-295
SW-620 = tested on: SW-620
OVCAR-8 = tested on: OVCAR-8
NCI-H522 = tested on: NCI-H522
SF-268 = tested on: SF-268
NCI-H23 = tested on: NCI-H23
EKVX = tested on: EKVX
CAKI-1 = tested on: CAKI-1
MOLT-4 = tested on: MOLT-4
HCC 2998 = tested on: HCC 2998
786-0 = tested on: 786-0
SNB-75 = tested on: SNB-75
DLD-1 = tested on: DLD-1
OVCAR-3 = tested on: OVCAR-3
LXFL 529 = tested on: LXFL 529
A549 = tested on: A549
HOP-18 = tested on: HOP-18
OVCAR-4 = tested on: OVCAR-4
K562 = tested on: K562
ACHN = tested on: ACHN
COLO 205 = tested on: COLO 205
RXF 631 = tested on: RXF 631
HOP-62 = tested on: HOP-62
NCI-H460 = tested on: NCI-H460
SK-MEL-5 = tested on: SK-MEL-5
HCT-15 = tested on: HCT-15
NCI-H226 = tested on: NCI-H226
XF498 = tested on: XF498
DMS-114 = tested on: DMS-114
TK-10 = tested on: TK-10
SNB-19 = tested on: SNB-19
SK-OV-3 = tested on: SK-OV-3
UACC-257 = tested on: UACC-257
KM-20L2 = tested on: KM-20L2
RXF 393 = tested on: RXF 393
SNB-78 = tested on: SNB-78
SF-539 = tested on: SF-539
M19-MEL = tested on: M19-MEL
UACC-62 = tested on: UACC-62
A498 = tested on: A498
IGROV-1 = tested on: IGROV-1

Measured: GI50

Cc1ccc(C(=O)CC2(O)C(=O)Nc3c(C)cc(Cl)cc32)cc1 (stereo not drawn)
> 100 µM: HCT-15
inactive: DMS-273 > 100 µM | HL-60 59.8 µM | UO-31 > 100 µM | SK-MEL-28 > 100 µM | KM12 > 100 µM | HT-29 > 100 µM | U-251 > 100 µM | RPMI-8226 43.2 µM | Malme-3M > 100 µM | M14 > 100 µM | SN12C > 100 µM | OVCAR-5 > 100 µM | LOX IMVI > 100 µM | SK-MEL-2 > 100 µM | HOP-92 > 100 µM | CCRF-CEM > 100 µM | SF-295 > 100 µM | SW-620 > 100 µM | OVCAR-8 > 100 µM | NCI-H522 > 100 µM | SF-268 > 100 µM | NCI-H23 > 100 µM | EKVX > 100 µM | CAKI-1 > 100 µM | MOLT-4 59.4 µM | HCC 2998 > 100 µM | 786-0 > 100 µM | SNB-75 47.9 µM | DLD-1 > 100 µM | OVCAR-3 > 100 µM | LXFL 529 > 100 µM | A549 > 100 µM | HOP-18 > 100 µM | OVCAR-4 35.7 µM | K562 86.5 µM | ACHN > 100 µM | COLO 205 > 100 µM | RXF 631 > 100 µM | HOP-62 > 100 µM | NCI-H460 > 100 µM | SK-MEL-5 > 100 µM | NCI-H226 > 100 µM | XF498 > 100 µM | DMS-114 52.1 µM | TK-10 > 100 µM | SNB-19 > 100 µM | SK-OV-3 > 100 µM | UACC-257 > 100 µM | KM-20L2 > 100 µM | RXF 393 > 100 µM | SNB-78 > 100 µM

CN1Cc2c(nc(-c3ccccc3)c[n+]2[O-])N(C)C1
> 100 µM: HCT-15
inactive: DMS-273 > 100 µM | HL-60 > 100 µM | UO-31 > 100 µM | SK-MEL-28 > 100 µM | KM12 > 100 µM | HT-29 > 100 µM | U-251 > 100 µM | RPMI-8226 > 100 µM | Malme-3M > 100 µM | M14 > 100 µM | SN12C > 100 µM | OVCAR-5 > 100 µM | LOX IMVI > 100 µM | SK-MEL-2 > 100 µM | HOP-92 > 100 µM | CCRF-CEM > 100 µM | SF-295 > 100 µM | SW-620 > 100 µM | OVCAR-8 > 100 µM | NCI-H522 > 100 µM | SF-268 > 100 µM | SF-539 > 100 µM | NCI-H23 > 100 µM | EKVX > 100 µM | CAKI-1 > 100 µM | MOLT-4 > 100 µM | HCC 2998 > 100 µM | 786-0 > 100 µM | SNB-75 > 100 µM | DLD-1 > 100 µM | OVCAR-3 > 100 µM | LXFL 529 > 100 µM | A549 > 100 µM | HOP-18 > 100 µM | OVCAR-4 > 100 µM | K562 > 100 µM | ACHN > 100 µM | COLO 205 > 100 µM | RXF 631 > 100 µM | HOP-62 > 100 µM | NCI-H460 > 100 µM | M19-MEL > 100 µM | SK-MEL-5 > 100 µM | UACC-62 > 100 µM | NCI-H226 > 100 µM | XF498 > 100 µM | DMS-114 > 100 µM | A498 > 100 µM | TK-10 > 100 µM | SNB-19 > 100 µM | SK-OV-3 > 100 µM | UACC-257 > 100 µM | IGROV-1 > 100 µM | KM-20L2 > 100 µM | SNB-78 > 100 µM

— ChEMBL document CHEMBL1201862, “PubChem BioAssay data set” (2004)
